Key:
[1] = target: COX1 (Homo sapiens, UniProt P23219); details: compared with other types of deuterated arachidonic acid; unmodified arachidonic acid as control
Method: The effect of a high level of isotopically modified polyunsaturated lipid (e.g. arachidonic acids having deuterium at bis-allylic sites) on the enzymatic activity of cyclooxygenase (COX) was examined in vitro. The COX1 activity was measured by oxygen consumption (Clark electrode) in vitro. […] Arachidonic acid with no deuterium modification was used as a control.

[2] = tested on: Aldh2−/− mice; details: Aldh2−/− mice as well as APP/PS1 and 3×Tg transgenic mice; cited from earlier work

Chain of COX1 (P23219 24-599): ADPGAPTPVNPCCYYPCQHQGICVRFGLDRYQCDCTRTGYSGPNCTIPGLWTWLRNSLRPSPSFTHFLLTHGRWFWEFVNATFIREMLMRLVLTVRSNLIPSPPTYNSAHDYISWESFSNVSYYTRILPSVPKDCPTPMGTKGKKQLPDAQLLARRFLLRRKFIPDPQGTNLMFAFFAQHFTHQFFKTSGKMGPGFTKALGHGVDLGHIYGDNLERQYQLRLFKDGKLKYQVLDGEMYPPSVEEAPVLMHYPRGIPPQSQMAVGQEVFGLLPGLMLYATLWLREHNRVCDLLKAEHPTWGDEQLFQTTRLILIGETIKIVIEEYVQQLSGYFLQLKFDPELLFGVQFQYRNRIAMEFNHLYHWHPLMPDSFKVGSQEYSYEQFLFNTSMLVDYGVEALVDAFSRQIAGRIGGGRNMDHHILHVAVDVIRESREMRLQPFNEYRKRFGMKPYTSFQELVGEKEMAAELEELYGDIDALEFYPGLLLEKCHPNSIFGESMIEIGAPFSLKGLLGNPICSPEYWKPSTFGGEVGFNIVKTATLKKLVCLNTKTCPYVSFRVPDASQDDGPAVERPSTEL

Row | Structure (SMILES) | reduction of COX1 activity [1] | memory [2]
1 | [2H]C([2H])(/C=C\C/C=C\C/C=C\CCCC(=O)O)/C=C\CCCCC [13,13-D2-arachidonic acid] | most effective in reducing the activity of COX1 | 
2 | Cc1ncsc1CCO[N+](=O)[O-].Cl [NMZ, 4-methyl-5-(2-(nitrooxy)ethyl)thiazol-3-ium chloride] |  | memory can be improved

— patent publication US11166930B2, “Isotopically modified components and therapeutic uses thereof” (RETROTOPE, INC., priority 2016, dated 2021)
